Entries after “also recorded” stand apart in the source; their conditions may differ.

The record followed here is article PMC6287599, “2,6-Bis(2-Benzimidazolyl)Pyridine (BBP) Is a Potent and Selective Inhibitor of Small Conductance Calcium-Activated Potassium (SK) Channels” (Frontiers in Pharmacology, 2018).

For one assay, the target named is hSK2 (Homo sapiens, UniProt Q9H2S1). Kind of assay: Manual whole cell patch clamp, HEK293 transiently transfected with hSK2. Type of assay: cell-based. The settings on record: BBP 1 μM, compared to positive control bicuculline methiodide 100 μM, n = 5, read-out: Inhibition of hSK2 current. Here is the method:
HEK293 cells were transiently co-transfected with the plasmid of interest (hBK, hSK1, hSK2, hSK3 WT, rSK3 H491N, or hIK) and eGFP using standard Lipofectamine™ 2000 (Thermo Fisher Scientific, Waltham, Massachussets, USA) transfection protocols. After transfection, cells were incubated overnight before the experiments.
Manual patch clamp experiments were performed at room temperature in the whole cell configuration with a HEKA EPC9 amplifier and the Patchmaster software (HEKA Elektronik, Ludwigshafen, Germany). All currents were elicited every 2 s using an incremental 200 ms voltage-ramp protocol starting at −80 mV and finishing at +80 mV from a holding potential of 0 mV. […] Currents were measured using the same solutions as the ones used for automated patch clamp, with symmetrical potassium concentrations and a free intracellular calcium concentration of 400 nM. […]
(§1) To assess the effect of BBP on other calcium-activated potassium channels (hBK, hSK3 WT, rSK3 H491N, and hIK), each individual current was first normalized to its cell size using membrane's capacitance (pA/pF) before statistical analysis. […] Statistical significance between saline and the effect of both BBP and the corresponding reference compound was determined for each channel using one-way ANOVA analysis. […]

A further assay deals with T1, Kir2.1 (Homo sapiens, UniProt P63252).
T1 sequence (P63252 1-427): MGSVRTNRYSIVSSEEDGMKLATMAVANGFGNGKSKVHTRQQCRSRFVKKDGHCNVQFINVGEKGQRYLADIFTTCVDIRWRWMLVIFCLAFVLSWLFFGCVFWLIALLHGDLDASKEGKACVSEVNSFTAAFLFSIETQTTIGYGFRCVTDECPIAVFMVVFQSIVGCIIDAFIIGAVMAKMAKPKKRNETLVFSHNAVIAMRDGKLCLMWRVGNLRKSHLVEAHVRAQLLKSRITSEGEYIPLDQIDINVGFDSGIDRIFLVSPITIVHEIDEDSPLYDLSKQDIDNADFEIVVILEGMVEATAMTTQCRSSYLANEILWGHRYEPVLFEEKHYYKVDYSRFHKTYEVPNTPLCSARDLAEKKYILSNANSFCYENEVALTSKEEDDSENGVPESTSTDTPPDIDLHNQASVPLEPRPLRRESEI
The experiment in a line: Two-electrode voltage clamp in Xenopus laevis oocytes, Kir2.1. Particulars: BBP 10 μM, TEVC, n = 5. The assay is classed as cell-based. As to the method:
cRNA was prepared from linearized plasmids using the mMESSAGE mMACHINE T7 kit (Ambion, USA) and quantified by UV spectroscopy (NanoDrop, Thermo Scientific, Wilmington, USA). Xenopus laevis oocytes were acquired from EcoCyte Bioscience (Castrop-Rauxel, Germany). Oocytes were injected with 50 nL cRNA and currents were recorded after 2 days of incubation at 19°C. Currents were recorded at a sampling rate of 10 kHz using a TEVC amplifier (Dagan CA-1B; IL, USA), and borosilicate glass recording electrodes (Module Ohm, Herlev, Denmark), made with a DMZ Universal Puller (Zeitz Instruments, Martinsried, Germany) with a resistance of 0.5–1 MΩ when filled with 2 M KCl. Oocytes were superfused with Kulori (pH 7.4) solution containing NaCl 90 mM, KCl 4 mM, MgCl2 1 mM, CaCl2 1 mM, 4-(2-hydroxyethyl)-1-piperazineethanesulfonic acid 5 mM, and currents were elicited with the voltage protocols previously indicated (Skarsfeldt et al., [2016]), from a holding potential of −80 mV. […]
as §1

For the compound `c1cc(-c2nc3ccccc3[nH]2)nc(-c2nc3ccccc3[nH]2)c1` [BBP, 2,6-Bis(2-benzimidazolyl)pyridine], the inhibition at 1 µM at hSK2 amounted to 94.8 ± 2.1%. Moreover, the “Effect on Kir2.1 current” value on Kir2.1 is on record as “did not have any effect; also recorded: did not significantly affect”.
